# Assay results as given in patent publication US20250041261A1, “METHODS AND COMPOSITIONS FOR TREATING MELANOMA” (INSTITUT NATIONAL DE LA SANTÉ ET DE LA RECHERCHE MÉDICALE, priority 2021, published 2025).
# “Also recorded” adds a separate entry of the source.
# How the values were obtained:
# [1] = system: Uveal melanoma cells (OMM1.3, MM28, MP65 and MP46); assay: Spheroid (melanosphere) formation, 3D-cultures; format: cell-based, human; conditions: AM23 100 nM (or 1 mM); low attachment plates; pictures after 8 days
# Method: Uveal melanoma cells (OMM1.3, MM28, MP65 and MP46) were seeded at 5000 cells/well in 6-well low attachment plates and were left untreated (0) or were treated with DMSO (Ctl) or AM23 (100 nM or 1 mM) 24 hours later. Representative pictures taken after 8 days are shown.
# Uveal melanoma cells were seeded at a density of 5,000 cells per well and grown in MEF medium (R&D systems, #AR005) supplemented with 4 ng/ml FGF2 in low adherence plates. The following day, wells were supplemented with ironomycin (100 nM or 1 mM). Photographs were taken using a phase contrast microscope (EVOS XL Core Imaging System).
# [2] = system: MP46 and OMM1.3 human uveal melanoma cells; assay: Fe (ii) detection in lysosomes with RhoNox-M fluorescent probe; format: cell-based; conditions: AM23 30 nM or 100 nM, salinomycin 0.5 mM, 48 h, then RhoNox-M 1 h, compared to control cells
# Method: A. MP46 and B. OMM1.3 human uveal melanoma cells were seeded at 5000 cells/well on a glass coverslip and were treated with DMSO (Ctl), AM23 (30 nM or 100 nM) or salinomycin (0.5 mM) for 48 h and then with RhoNox-M for 1 h for Fe 2+ detection. Representative confocal fluorescence microscopy images.
# To assess whether AM23 triggers lysosomal iron accumulation, we evaluated whether endocytic vesicles contained Fe (ii) as previously reported. To this aim, the Fe (ii)-specific turn-on fluorescent probe RhoNox-M, which can detect the presence of Fe (ii) in lysosomes, was used. […] In response to the ensuing cytoplasmic depletion of iron, cells triggered in lysosomes the degradation of ferritin, which stores cellular iron, leading to further iron loading in this organelle.
# [3] = system: Uveal melanoma cells (OMM1.3, MM28, MP46, MP65); assay: Cell survival assay (PrestoBlue), 2D-cultures; format: cell-based, human; conditions: increasing concentrations, PrestoBlue after 96 h / 72 h
# Method: Uveal melanoma cells (OMM1.3, MM28, MP46, MP65) were seeded at 5,000 cells/well in a 96-well plate and treated with increasing concentrations of AM23, salinomycin or staurosporine as positive control as indicated on the figure. The condition “milieu RPMI” represents medium without cells. After 96 h of incubation, cells were incubated with PrestoBlue reagent according to manufacture instructions. The absorbance per well was measured with a microplate reader. The data were then analyzed using excel.
# Uveal melanoma cells were seeded at 5,000 cells/well in a 96-well plate and treated with salinomycin or ironomycin as well as a positive control (staurosporin, 500 nM). After 72 h of incubation, cells were treated with PrestoBlue reagent according to manufacture instructions (Thermofisher). The absorbance per well was measured with a microplate reader. The data were then analyzed using excel software.
# Uveal melanoma cells are known to hardly enter into apoptosis in response to treatments. Thus, we investigated the effects of salinomycin (Sal) and its derivate called ironomycin (AM23) that have been shown, in different cancer cells, to trigger ferroptosis, a type of cell death based on accumulation of iron into lysosomes and subsequent lysosomal membrane permeabilization. We treated a panel of uveal melanoma cells, i.e the human metastatic OMM1.3 (BAP1+) and MM28 (BAP1+) cells, and the human primary MP46 (BAP1−) and MP65 (BAP1−) cells, with Sal or its derivate AM23 to determine if these drugs can represent potential therapeutic options.
# [4] = system: primary uveal melanoma cells (MP46 and MP65) or metastatic uveal melanoma cells (OMM1.3) expressing or not BAP1; assay: Colony formation assay; format: cell-based, human; conditions: MP46, MP65, OMM1.3, whether BAP1 is expressed or not; 7 days
# Text: FIG. 6: Colony formation assay of primary uveal melanoma cells (MP46 and MP65) or metastatic uveal melanoma cells (OMM1.3) expressing or not BAP1 after seeding them for 7 days upon treatment with the drugs indicated on the figure. Representative wells are shown.
# [5] = system: PLX-resistant metastatic cutaneous melanoma cells; assay: Cell count of PLX-sensitive and resistant cutaneous melanoma cells; format: cell-based; parameters: dose or concentration left out as unconfirmed; conditions: increasing concentrations of AM23 or AM5 in presence or absence of PLX; cells counted after 72 h; FIG. 1
# Method: PLX-sensitve and resistant cutaneous melanoma cells, seeded at 150,000 cells/well in 6-well dishes, were treated with increasing concentrations of AM23 or AM5 in presence or absence of PLX ([…]). Cells were manually counted after 72 h.
# PLX-sensitve and resistant cutaneous melanoma cells were seeded at 150,000 cells/well in 6-well dishes. They were treated with increasing concentrations of AM23 or AM5 in presence or absence of PLX ([…]). Cells were manually counted after 72 h.
# ferritin = assay: Western blot of ferritin expression; format: cell-based, human; conditions: OMM1.3 and MP46 cells; AM23 100 nM or salinomycin 0.5 mM for 48 h; immunoblot
# Method: FIG. 5: Effect of AM23 or salinomycin on ferritin expression. OMM1.3 and MP46 human uveal melanoma cells were left untreated (UNT) or were treated with DMSO (Ctl), AM23 (100 nM) or salinomycin (0.5 mM) for 48 h. Cell lysates were analysed by immunoblot with antibodies to ferritin. Actin was used as a loading control.
# Briefly, uveal melanoma cell lysates (50 μg) were separated using SDS-PAGE, transferred onto a PVDF membrane and subsequently exposed to the appropriate antibodies, anti-ferritin (#sc376594, 1/1,000) and anti-actin (sc47778, 1/1,000) from Santa Cruz Biotechnology. The proteins were visualized using the ECL system (Amersham). The western blots shown are representative of at least 3 independent experiments.
# [6] = system: Primary (MP46) or metastatic (OMM1, OMM2.5, OMM1.3) uveal melanoma cells; assay: PrestoBlue proliferation/survival assay (FIG. 7); format: cell-based, human; conditions: MP46, OMM1, OMM2.5, OMM1.3, increasing concentrations, 72 h
# Method: FIG. 7: Primary (MP46) or metastatic (OMM1, OMM2.5, OMM1.3) uveal melanoma cells were seeded at 3000 cells/well in a 96 well plate and treated with increasing concentrations of salinomycin, AM23 or AM5. After 72 h of incubation, cells were treated with PrestoBlue reagent according to manufacture instructions. The absorbance per well was measured with a microplate reader. The data were then analyzed using Prism8. Histograms bars represent the average of three replicates #standard error of the mean (s.e.m).
SMILES,melanosphere formation / cell survival in 3D-cultures [1],Fe (ii) / iron accumulation in lysosomes (RhoNox-M fluorescence) [2],proliferation/survival of uveal melanoma cells in 2D-cultures [3],ability of uveal melanoma cells to form colonies [4],resensitization of PLX-resistant cells to PLX effects (cell count) [5],ferritin expression (ferritin),uveal melanoma cell proliferation/survival (FIG. 7) [6],Fe (ii) / iron accumulation in lysosomes (RhoNox-M fluorescence) ([2]; listed as Sal),proliferation/survival of uveal melanoma cells in 2D-cultures ([3]; listed as Sal)
"C#CCN[C@@H]1C=C[C@]2(O[C@H]([C@@H](CC)C(=O)[C@@H](C)[C@@H](O)[C@H](C)[C@@H]3O[C@@H]([C@@H](CC)C(=O)O)CC[C@@H]3C)[C@@H](C)C[C@H]2C)O[C@@]12CC[C@@](C)([C@H]1CC[C@](O)(CC)[C@H](C)O1)O2 [AM23, (2R)-2-[(2R,5S,6R)-6-{(2S,3S,4S,6R)-6-[(2S,5S,7R,9S,10S,12R,15R)-2-[(2R,5R,6S)-5-Ethyl-5-hydroxy-6-methyltetrahydro-2H-pyran-2-yl]-2, 10,12-trimethyl-15-(2-propyn-1-ylamino)-1,6,8-trioxadispiro[4.1.5.3]pentadec-13-en-9-yl]-3-hydroxy-4-methyl-5-oxo-2-octanyl}-5-methyltetrahydro-2H-pyran-2-yl]butanoic acid]",prevents melanosphere formation; also recorded: almost complete disappearance of melanospheres,induces Fe (ii) in lysosomes; also recorded: exhibited fluorescent RhoNox-M-positive vesicles,induces uveal melanoma cell death; also recorded: reduced proliferation/survival,strong reduction,resensitizes PLX-resistant metastatic cutaneous melanoma cells to PLX effects,strongly reduced,,,
C#CCN[C@@H]1C=C[C@]2(O[C@H]([C@@H](CC)C(=O)[C@@H](C)[C@@H](O)[C@H](C)C3O[C@@H](C(CC)C(=O)O)CC[C@@H]3C)[C@@H](C)C[C@H]2C)O[C@@]12CC[C@@](C)([C@H]1CC[C@](O)(CC)[C@H](C)O1)O2 (stereo partly shown) [AM5],,,,,,,"decreases uveal melanoma cell proliferation/survival, yet with a little bit lower efficacy than AM23",,
"CC[C@@H](C(=O)O)C1CC[C@H](C)[C@H]([C@@H](C)[C@H](O)[C@H](C)C(=O)[C@H](CC)[C@H]2OC3(C=C[C@@H](O)C4(CC[C@@](C)([C@H]5CC[C@](O)(CC)[C@H](C)O5)O4)O3)[C@H](C)C[C@@H]2C)O1 (stereo in doubt) [Salinomycin, (2R)-2-[(5S,6R)-6-[(1S,2S,3S,5R)-5-[(2S,5R,7S,9S,10S, 12R, 15R)-2-[(2R,5R,6S)-5-ethyl-5-hydroxy-6-methyl-2-tetrahydropyranyl]-15-hydroxy-2,10,12-trimethyl-1,6,8-trioxadispiro[4.1.57.35]pentadec-13-en-9-yl]-2-hydroxy-1,3-dimethyl-4-oxoheptyl]-5-methyl-2-tetrahydropyranyl]butanoic acid, reference compound]",,induces Fe (ii) in lysosomes,induces uveal melanoma cell death,strong reduction,,strongly reduced,,exhibited fluorescent RhoNox-M-positive vesicles,reduced proliferation/survival
